Data on 1 molecule can be found in paper PMC7849180 (Frontiers in Pharmacology, 2020).

For data set [1], the system named is myeloproliferative neoplasm. Description: JAK2V617F transgenic mouse model. The class given is in vivo, JAK2V617F transgenic mice. Conditions: 100 mg/kg daily oral gavage, 4 weeks. As for the experimental part:
Suzhou Zelgen Biopharmaceuticals Co., Ltd. Jaktinib Hydrochloride Tablets Chemical Drug Class 1 New Drug […]
cells at a concentration of 1 μM. […]
effectively affect the primary cells harboring the JAK2V617F mutation in patients with […]
In Vivo Pharmacodynamic Study of ZG0128 in Mouse Model of Myeloproliferative Neoplasm
Primary myelofibrosis (PMF) is characterized by the formation of bone marrow fibrous tissues (scar-like) caused by the abnormal proliferation of three types of cells (platelets, white blood cells, and red blood cells). At present, there is still no particularly effective treatment for these diseases. JAKV617F transgenic mice and JAK2V617F bone marrow transplanted mice can develop the pathological characteristics of myeloproliferative neoplasm, which can be used to effectively evaluate the efficacy of drugs used in the treatment of myeloproliferative neoplasms.
HCD-57-JAK2V617F cells were intravenously injected into NSG mice. Three weeks later, the mice were injected intraperitoneally with a single dose of 200 mg/kg of compound ZG0128, and euthanized 4 h after drug administration. The results of […]
The ability of compound ZG0128 and its positive control drug ZG0192 to inhibit the pathological characteristics of myeloproliferative tumors (MPNs) was evaluated in a JAK2V617F bone marrow transplanted mouse model. […]

Data set [2] can be described thus: Bone marrow micronucleus test. It counts as in vivo, NIH mice. As to conditions: 122, 244, 488 mg/kg oral gavage, 4 days. The text has this:
(§1) Suzhou Zelgen Biopharmaceuticals Co., Ltd. Jaktinib Hydrochloride Tablets Chemical Drug Class 1 New Drug chromosomal structural aberrations in CHL cells. Therefore, the results of the chromosomal aberration test were negative.
(§2) Mouse Bone Marrow Micronucleus Test
(§3) A mouse bone marrow micronucleus test of ZG0128 has been performed. After multiple doses of ZG0128 are given to mice via oral gavage, the incidence of micronucleated polychromatic erythrocytes in the bone marrow is observed to estimate the damage to chromosomal integrity in bone marrow cells and subsequent abnormality of chromosome segregation, so as to determine the presence of genotoxicity. The results […]
once a day for 4 consecutive days, neither damage to the chromosomal integrity in bone marrow cells nor abnormal chromosome segregation was observed. Therefore, the results of the micronucleus test were negative.
A Toxicity Test on Fertility and Early Embryo Development in Wistar Rats Administered ZG0128 by Oral Gavage
A toxicity test on the fertility and early embryo development in Wistar rats given ZG0128 by oral gavage was completed. In this test, female and male rats were given a continuous dose of ZG0128 prior to mating until embryo implantation to observe the toxicity or interference of ZG0128 on the fertility and early embryo development in […]
groups of 18, 36, and 72 mg/kg of ZG0128. […]

On the set-up of data set [3]: species or system Wistar rats. Conditions: rat, in vivo, po.
Excerpt: as §1, §2, §3
were observed every day. […] The body weight of female rats was measured twice a week before pregnancy and on days 0, 2, 4, 6, 9, 12, and 15 of gestation after successful mating. The food intake of male and female rats was measured once a week before mating. After successful mating, the food intake of female rats was measured on days 0, 6, and 12 of gestation. […] In addition, the weights of testes, epididymides, prostate, and seminal vesicles were measured to calculate the organ coefficients. […] In addition, the weights of the pregnant uterus, placenta and uterus, placenta, ovaries, brain, and the total weight of live fetuses were measured. […]

Regarding `Cl.Cl.O.[2H]C1([2H])COCC([2H])([2H])N1c1ccc(Nc2nccc(-c3ccc(C(=O)NCC#N)cc3)n2)cc1` [ZG0128, Jaktinib Dihydrochloride Monohydrate], the “counts of three types of blood cells and spleen volume” value in data set [1] is “significant decrease”. Also, in data set [2], the micronucleus test result is reported as “negative”. In data set [3], the “NOAEL for reproductive functions and embryonic development” value stood at 18 mg/kg.
